In patent publication EP0142057A2, “Thiazoloquinazoline derivatives, their preparation and pharmaceutical compositions containing same” (F. HOFFMANN-LA ROCHE AG, priority 1983, dated 1985):
Structures can show the parent of a compound that is named as a salt.

What was measured:
TXA2 synthase = target: T1, TXA2 synthase (Homo sapiens, UniProt P24557); assay: Thromboxane synthase inhibition, in vitro; assay type: biochemical; conditions: at 10^-7M; microsomal fractions from human platelets; read-out: TXA2Synthase Inhibition (% at 10^-7M)
T1 construct: using microsomal fractions from human platelets as enzyme source; from tissue; host or cells: human platelets (microsomal fraction)
T1 sequence (P24557 1-533): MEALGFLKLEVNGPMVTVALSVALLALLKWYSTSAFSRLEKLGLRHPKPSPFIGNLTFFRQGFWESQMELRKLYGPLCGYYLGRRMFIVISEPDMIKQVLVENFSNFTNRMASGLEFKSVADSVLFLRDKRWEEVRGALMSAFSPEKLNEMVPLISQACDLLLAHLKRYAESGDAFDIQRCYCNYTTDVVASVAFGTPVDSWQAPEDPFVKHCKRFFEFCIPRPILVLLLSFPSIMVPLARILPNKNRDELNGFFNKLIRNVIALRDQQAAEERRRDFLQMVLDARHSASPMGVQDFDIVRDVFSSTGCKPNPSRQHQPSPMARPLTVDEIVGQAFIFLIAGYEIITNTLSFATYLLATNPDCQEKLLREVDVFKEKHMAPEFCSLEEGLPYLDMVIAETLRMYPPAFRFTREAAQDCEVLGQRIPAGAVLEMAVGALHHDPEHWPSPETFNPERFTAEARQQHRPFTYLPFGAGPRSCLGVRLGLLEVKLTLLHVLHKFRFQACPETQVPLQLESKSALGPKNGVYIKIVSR
Description: TXA2 synthase activity is measured by following the conversion of ^14C-prostaglandin endoperoxide (PGH2) to ^14C-thromboxane A2 (TXA2) using microsomal fractions from human platelets as enzyme source. In the aqueous incubation medium, the TXA2 decomposes rapidly into TXB2. The amount of TXA2 synthase is adjusted so that under the conditions of the assay approximately 80-90% of the substrate, PGH2, is converted to product in control tubes. To prepare ^14C-PGH2, ^14C-AA (50-60 mCi/mmole: Rose Chem.) is incubated with sheep seminal vesicular gland microsomes for 1.5 minutes at 37°C and then the ^14C-PGH2 is extracted with diethylether, purified on columns of Sephadex LH-20 or silicic acid, and stored in acetone at -70°C. Incubations are done as follows. Sufficient ^14C-PGH2 to yield a final substrate concentration of 10 µM (30,000 cpm) is added to the incubation tubes and then the acetone is removed under nitrogen. The tubes are placed in an ice bath and then 215 1 of ice cold phosphate buffered saline, 10 1 of ethanol (control) or of test drug in ethanol, and 25 1 of the microsomal suspension are added with mixing in that order as rapidly as possible. The tubes are incubated at 22°C for 2 minutes, the reaction is stopped and then the radioactive products and the uncoverted PGH2 are extracted and analyzed by thin layer chromatography. […] The amount of ^14C-PGH2 converted to products was used as a measure of TXA2 synthase activity. Inhibitors were tested initially at a final concentration of 100 µM. Results obtained with representative compounds of the present invention in this assay are summarized hereafter in Table I.

[1] = system: Guinea Pig Bronchoconstriction; assay: Guinea pig bronchoconstriction, in vivo (leukotriene E4 challenge); parameters: species or system guinea pigs; conditions: for Guinea Pig Broncho-constriction % Inhibition (10 mg/kg i.v.): Table II; for Guinea Pig Broncho-constriction % Inhibition (10 mg/kg i.v.) / inhibition: leukotriene E4 challenge; for inhibition: 10 mg/kg, i.v.; for oral activity: orally 100 mg/kg, 2 hours prior to challenge with leukotriene E4
Description: Male guinea pigs (Hostley strain) weighing 300 to 450 grams are anesthetized with urethane (2 g/kg) intraperitoneally and a polyethylene cannula is inserted into the jugular vein for intravenous drug administration. Tracheal pressure is recorded from a cannula inserted in the trachea and connected to a Statham pressure transducer. Respiration is paralyzed with succinyl choline (1.2 mg/kg, i.v.) and the animals are mechanically respirated (Howard rodent respirator) at 40 breaths/minute and 2.5 ml tidal volume. Two minutes thereafter, propranolol (0.1 mg/kg, i.v.) is administered. Five minutes later, the animals are pretreated intravenously for 30 seconds (at 10 mg/kg) with test drug or control vehicle. The animals are subsequently challenged with a maximally constrictory dose of leukotriene E4 also administered intravenously. The change (cm H20) between pre and peak ventilatory pressure readings is averaged for three control animals and five drug treated animals. The percent inhibition is calculated from the following formula: [formula]
For determination of oral activity spontaneously breathing animals are pretreated orally with drugs (100 mg/kg) for 2 hours (at 100 mg/kg) prior to challenge with leukotriene E4. […] When tested orally in this assay the two compounds of the invention were active. Results obtained with representative compounds of the present invention in this assay are summarized hereafter in Table II.

[2] = system: vascular permeability in rat skin; assay: Rat skin permeability, in vivo (LTE4-induced skin wheal); parameters: species or system rats; conditions: for Rat Skin Permeability % Inhibition (10mg/kg iv): Table II, LTE4 wheal; for reduction in the skin wheal size: 10 mg/kg i.v.
Description: In this model the ability of LTE4 to increase vascular permeability in rat skin was utilized. Anesthetized rats, pretreated for 30 minutes with an antihistamine pyrilamine maleate, 50 mg/kg i.p. and a serotonin antagonist, methyl- […] maleate (4 mg/kg i.p.), were injected intradermally with a standard dose of LTE4 which gave a maximum wheal (in 0.05 ml saline). After introduction of test drug (at 10 mg/kg i.v.) the animals were immediately treated intravenously with Evans blue dye i.v. (0.5%) in the tail vein resulting in the formation of a skin wheal. Thirty minutes later the animals were sacrificed and the skin wheal size was measured. The average response in 5 animals (4 intradermal injections per animal) treated with test compound was compared to that obtained in a similar group of control animals to determine the percent inhibition by the drug.

[3] = system: Rat Passive Cutaneous Anaphylaxis; assay: Passive cutaneous anaphylaxis (PCA) assay; assay type: in vivo, rats; conditions: for ED50: Rattus norvegicus, po, doses administered orally, read-out: Rat PCA Test ID50
Description: Male Sprague-Dawley rats obtained from Charles River Breeding Laboratories were used in the PCA assay. Two methods were used to prepare serum IgE antibody which is specific for egg albumin. In the first method homocytotropic antibody was obtained by injecting 180 to 200 g rats with 1.0 mg of egg albumin (Difco Laboratories, Detroit, Michigan) intramuscularly and 6.4 x 10^10 organisms of Bordetella pertussis vaccine (Eli Lilly and Co., Indiana- polis, Ind.) intraperitoneally. Serum collected from each animal 18-20 days after sensitization was pooled, separated into 1 ml aliquots, and kept frozen until further use. In the second method, rats weighing 150-200 g were immunized by the intraperitoneal injection of 0.5 ml of Bordetella pertussis vaccine (Cannaught Laboratories, Willowdale, Toronto, Canada, 20 optical units/ml) and 100 μg of egg albumin (Nutritional Biochemicals Corp., Cleveland. Ohio). Sixteen days later, Nipostrongylus brasi- […] (3000 larvae/0.1 ml) was administered subcutaneously, and on the 21st day, 10 μg of egg albumin in 0.5 ml of normal saline was administered intraperitoneally. On the 30th day, blood samples were collected by heart puncture; the serum was separated by centrifugation and refrigerated overnight at 5°C. After a 24 hour period, the samples were assayed for antibody activity by the passive cutaneous anaphylaxis method. Those serum samples which produced an average wheal diameter of 3 mm or greater following an intradermal injection of 0.05 ml of a 1:50 dilution of serum in normal saline were pooled, divided into aliquots, and kept frozen until further use. […] The passive cutaneous anaphylaxis assay was carried out in rats weighing 190-220 g in a manner similar to that of Goose and Blair (J. Goose and A.M.J.N. Blair, Immunology, 16, 749 [1969]). Rat IgE antiovalbumin in serum was prepared as described above. The IgE antiserum was titered with normal saline so that injections of 0.05 ml produced skin wheal diameters which averaged 7 to 10 mm. After a 24 hour sensitization period, 1 ml of an aqueous solution containing a mixture of 8 mg of egg albumin (Nutritional Biochemical Corp.. Cleveland, Ohio) and 5 mg of Evans blue dye ([…] Chemical Co., Inc., Harriman, N.Y.) was administered intravenously to each rat. Forty minutes after challenge, each animal was sacrificed by cervical dislocation, and the dorsal skin was removed for examination. The long and short axes of the blued area were measured on the inner surface of the skin with a metric vernier caliper (VWR Scientific Division of Univar, Rochester, N.Y.), and the average diameter was determined for each reaction. […] The procedure was usually conducted on five animals in the control and each of the treatment groups. Statistical analysis of the test results was conduced by the Student's t test of control vs. various treatments. The ID50 and 95% limits were determined by a modification of the Berkson minimum logic chi square method (J. Berkson, J. Am. Stat. Assoc., 48, 565 [1953]).

[4] = system: vascular permeability in rat skin; assay: Rat skin permeability, in vivo (LTE4-induced skin wheal); parameters: species or system rats; conditions: for oral activity: tested orally

CC(C)c1ccc2nc3sc(C(=O)NCCCCCCc4cccnc4)cn3c(=O)c2c1
inhibition at 0.1 µM (TXA2 synthase): 36%

CC(C)c1ccc2nc3sc(C(=O)N(C)CCCCc4cccnc4)cn3c(=O)c2c1
Guinea Pig Broncho-constriction % Inhibition (10 mg/kg i.v.) [1]: Inactive | Rat Skin Permeability % Inhibition (10mg/kg iv) [2]: 72%

CC(C)c1ccc2nc3sc(C(=O)NCCCCOc4cccnc4)cn3c(=O)c2c1
inhibition at 0.1 µM (TXA2 synthase): 30%

CCC(C)c1ccc2nc3sc(C(=O)NCCN(CC)CC)cn3c(=O)c2c1 (centres unmarked)
Rat PCA Test (% Inhibition) 16 mg/kg ip [3]: 21%

CCN(CC)CCOC(=O)c1cn2c(=O)c3cc(OC)ccc3nc2s1
Rat PCA Test (% Inhibition) 16 mg/kg ip [3]: 100% | Rat PCA Test (% Inhibition) 32 mg/kg po [3]: 100% | ED50 [3]: 1.31 mg/kg

CCN(CC)CCNC(=O)c1cn2c(=O)c3cc(C(C)C)ccc3nc2s1
Rat PCA Test (% Inhibition) 32 mg/kg po [3]: 50%

CCN(CC)CCNC(=O)c1cn2c(=O)c3cc(CC(C)C)ccc3nc2s1
Rat PCA Test (% Inhibition) 16 mg/kg ip [3]: 31%

CCN(CC)CCNC(=O)c1cn2c(=O)c3cc(C(C)C)cc(C(C)C)c3nc2s1 [7,9-Bis(1-methylethyl)-N-[2-(diethylamino)ethyl] -5-oxo-5H--thiazolo[2,3-b]quinazoline-2-carboxamide hydrochloride]
Rat PCA Test (% Inhibition) 16 mg/kg ip [3]: 31% | Rat PCA Test (% Inhibition) 32 mg/kg po [3]: 27%

CCN(CC)CCOC(=O)c1cn2c(=O)c3cc(C(C)C)ccc3nc2s1 [7-(1-Methylethyl)-5-oxo-5H-thiazolo[2,3-b]quinazoline-2-carboxylic acid(2-diethylaminoethyl) ester hydrochloride]
Rat PCA Test (% Inhibition) 16 mg/kg ip [3]: 100% | Rat PCA Test (% Inhibition) 32 mg/kg po [3]: 100% | ED50 [3]: 0.45 mg/kg

CCCc1c(OCC(O)COc2ccc3c(=O)cc(C(=O)O)oc3c2CCC)ccc(C(C)=O)c1O (stereo not drawn) [7-[3-(4-acetyl-3-hydroxy-2-propylphenoxy) -2-hydroxypropoxy]-4-oxo-8-propyl-4H-l-benzopyran-2-carboxylic acid, reference compound]
inhibition [1]: 98% | oral activity [1]: inactive | reduction in the skin wheal size [2]: 88% | oral activity [4]: inactive

CC(C)c1ccc2nc3sc(C(=O)NCCCCc4cccnc4)cn3c(=O)c2c1 [Example 3, 7-(1-Methylethyl)-5-oxo-N-[4-(3-pyridinyl)butyl]-5H-thiazolo[2,3-b]quinazoline-2-carboxamide]
inhibition [1]: 68% | Guinea Pig Broncho-constriction % Inhibition (10 mg/kg i.v.) [1]: 68% | oral activity [1]: active | reduction in the skin wheal size [2]: 35% | Rat Skin Permeability % Inhibition (10mg/kg iv) [2]: 35% | oral activity [4]: active

CC(C)c1ccc2nc3sc(C(=O)NCCCCn4ccnc4)cn3c(=O)c2c1 [Example 6, N-[4-(1H-Imidazol-1-yl)butyl]-7-(1-methylethyl)-5-oxo-5H-thiazolo[2,3-b]quinazoline-2-carboxamide dihydrochloride 0.45 molar hydrate]
inhibition [1]: 85% | ED50 ([1]; Cavia porcellus, po, read-out: Guinea Pig Broncho-constriction ID50): 51 mg/kg | Guinea Pig Broncho-constriction % Inhibition (10 mg/kg i.v.) [1]: 85% | oral activity [1]: active | reduction in the skin wheal size [2]: 61% | Rat Skin Permeability % Inhibition (10mg/kg iv) [2]: 61% | Rat Skin Permeability ID50 ([4]; iv): 10 mg/kg | Rat Skin Permeability ID50 ([4]; po): 55 mg/kg | oral activity [4]: active

CCN(CC)CCOC(=O)c1cn2c(=O)c3cc(SC)ccc3nc2s1.Cl [Example 17, 7-(Methylthio)-5-oxo-5H-thiazolo[2,3-b]quinazoline-2-carboxylic acid (2-diethylaminoethyl) ester hydrochloride]
Rat PCA Test (% Inhibition) 16 mg/kg ip [3]: 52% | Rat PCA Test (% Inhibition) 32 mg/kg po [3]: 100% | ED50 [3]: 2.85 mg/kg

CC(C)c1cc(C(C)C)c2nc3sc(C(=O)NCCCCc4cccnc4)cn3c(=O)c2c1 [the 2nd table, row 8, 7,9-bis(1-methylethyl)-5-oxo-N-[4-(3-pyridinyl)butyl]-5H-thiazolo[2,3-b]quinazoline-2-carboxamide]
Rat Skin Permeability % Inhibition (10mg/kg iv) [2]: 38%
